Structures can show the parent of a compound that is named as a salt. Where two headings read alike, the source gives them in different places.
Legend:
[1] = system: GFP-labeled iPSC-derived human cortical glutamatergic neurons; test: cells; type: cell-based
in vitro = settings: PAMPA, PAMPA-BBB Pe
[2] = system: GFP-labeled iPSC-derived human cortical glutamatergic neurons; test: cells; settings: Neuron, 48 h
[3] = Table S2: compounds exhibiting moderate to high PAMPA-BBB permeability
[4] = Homo sapiens, Neuron, Table S1, total neurite length, 48 hr, head prints no unit, µM per Table 1 and Fig. 5, read-out: TNL AC50 (48 hr)
[5] = Table S1, 60 min, room temperature, 0.05 mM
[6] = read-out: Viability AC50 (48hr)
[7] = Table 1, 60 min, room temperature, 0.05 mM
[8] = Homo sapiens, Neuron, total neurite length, 48 h treatment, read-out: TNL AC50 (48 h)
[9] = read-out: Viability AC50 (48 h)

Compound | PAMPA-BBB Pe [3] | AC50 [1, 4] [µM] | Papp (in vitro; [5]) [×10⁻⁶ cm/s] | AC50 [2, 6] [µM] | other results
COc1ccc(/C=C/C(=O)c2ccc(O)cc2O)cc1OC [2',4'-DIHYDROXY-3,4-DIMETHOXYCHALCONE] | 312 10^-6 cm/sec | 5.97 | 312 |  | 
COc1ccc(/C=C/C(=O)c2ccc(O)cc2O)cc1 [2',4'-DIHYDROXY-4-METHOXYCHALCONE] | 357 10^-6 cm/sec | 37.2 | 357 | 21.5 | 
O=c1cc(-c2ccc(O)c(O)c2)oc2ccccc12 [3',4'-DIHYDROXYFLAVONE] | 94 10^-6 cm/sec | 15.7 | 93.9 | 19.8 | 
O=c1c(O)c(-c2ccccc2)oc2ccccc12 [3-Hydroxyflavone] |  |  | 181 |  | PAMPA-BBB Pe [7]: 181.17 10 × 10^− 6 cm/sec; AC50 [1, 8]: 2.97 µM; AC50 [2, 9]: 1.83 µM
COc1ccc(C(=O)/C=C/c2ccccc2)cc1 [4'-METHOXYCHALCONE] | >1000 10^-6 cm/sec | 23.6 |  | 23.6 | PAMPA-BBB Pe [5]: >1000 10^-6 cm/sec
CN[C@@H]1C[C@H]2O[C@@](C)([C@@H]1OC)n1c3ccccc3c3c4c(c5c6ccccc6n2c5c31)C(=O)N[C@H]4O [7-hydroxystaurosporine (UCN-01), 7-hydroxystaurosporine] | 158 10^-6 cm/sec | 5.74 | 158 | 7.92 | 
COc1cc([C@@H]2c3cc4c(cc3C[C@H]3COC(=O)[C@@H]32)OCO4)cc(OC)c1O [(5R,5aR,8aR)-5-(4-hydroxy-3,5-dimethoxyphenyl)-5,8,8a,9-tetrahydrofuro[3',4':6,7]naphtho[2,3-d][1,3]dioxol-6(5aH)-one] |  | 0.585 | 11.2 | 0.656 | Papp (in vitro; [3]): 11 ×10⁻⁶ cm/s
COc1cc(C2c3cc4c(c(O)c3CC3COC(=O)C32)OCO4)cc(OC)c1O (stereo not drawn) [Alpha-Peltatin] |  | 0.003 | 14.2 | 0.002 | 
CCC(=O)CCCCC[C@@H]1NC(=O)[C@H]2CCCCN2C(=O)[C@H]([C@@H](C)CC)NC(=O)[C@H](Cc2cn(OC)c3ccccc23)NC1=O [Apicidin] | 56 10^-6 cm/sec | 4.84 | 55.8 | 2.17 | PAMPA-BBB Pe [7]: 55.75 10 × 10^− 6 cm/sec; AC50 [1, 8]: 4.84 µM; AC50 [2, 9]: 2.17 µM
O=c1cc(-c2ccc(O)cc2)oc2cc(O)cc(O)c12 [Apigenin] | 36 10^-6 cm/sec | 35.9 | 36.2 | 37.2 | 
CC[C@H](C)[C@H]1O[C@]2(C=C[C@@H]1C)C[C@@H]1C[C@@H](C/C=C(\C)[C@@H](O[C@H]3C[C@H](OC)[C@@H](O[C@H]4C[C@H](OC)[C@@H](O)[C@H](C)O4)[C@H](C)O3)[C@@H](C)/C=C/C=C3\CO[C@@H]4[C@H](O)C(C)=C[C@@H](C(=O)O1)[C@]34O)O2 [Avermectin B1A] |  | 25.9 | 35 | 17.2 | 
CSC(=S)NCc1c[nH]c2ccccc12 [BRASSININ] | 267 10^-6 cm/sec | 6.34 | 267 |  | 
O=C1NC(=O)C(c2c[nH]c3ccccc23)=C1c1c[nH]c2ccccc12 [Bisindolylmaleimide IV] |  | 10.6 | > 654 | 13.9 | 
O=C(/C=C/c1ccc(O)c(O)c1)OCCc1ccccc1 [Caffeic acid phenethyl ester] |  | 22.2 |  | 24.8 | PAMPA-BBB Pe [5]: >1000 10^-6 cm/sec
CCCCCc1cc(O)c2c(c1)OC(C)(C)c1ccc(C)cc1-2 [Cannabinol] |  | 28.2 | 20.6 | 35.2 | Papp (in vitro; [3]): 21 ×10⁻⁶ cm/s
CC(C)c1cc2c(c(O)c1O)[C@@]13CCCC(C)(C)[C@@H]1C[C@@H]2OC3=O [Carnosol] | 33 10^-6 cm/sec | 17.8 | 32.8 | 26.4 | 
CC1=C(O)C(=O)C=C2C1=CC=C1[C@@]2(C)CC[C@@]2(C)[C@@H]3C[C@](C)(C(=O)O)CC[C@]3(C)CC[C@]12C [Celastrol] |  | 4.92 | 143 | 5.47 | PAMPA-BBB Pe [7]: 142.58 10 × 10^− 6 cm/sec; AC50 [1, 8]: 4.92 µM; AC50 [2, 9]: 5.47 µM; Papp (in vitro; [3]): 143 ×10⁻⁶ cm/s
COc1ccc2c(c[n+](C)c3c4cc5c(cc4ccc23)OCO5)c1OC [Chelerythrine chloride] |  | 2.79 | 94.7 | 2.19 | PAMPA-BBB Pe [7]: 94.67 10 × 10^− 6 cm/sec; AC50 [1, 8]: 2.79 µM; AC50 [2, 9]: 2.19 µM
CN1Cc2c(ccc3c2OCO3)[C@@H]2[C@H]1c1cc3c(cc1C[C@@H]2O)OCO3 [Chelidonine] | 75 10^-6 cm/sec | 7.54 | 75 | 5.8 | 
OCC=Cc1ccccc1 [Cinnamyl alcohol] | 97 10^-6 cm/sec | 5.95 | 97.5 |  | Papp (in vitro; [3]): 69 ×10⁻⁶ cm/s
COc1ccc(/C=C\c2cc(OC)c(OC)c(OC)c2)cc1O [Combretastatin A4] | 316 10^-6 cm/sec | 0.0277 | 316 | 0.047 | PAMPA-BBB Pe [7]: 315.59 10 × 10^− 6 cm/sec; AC50 [1, 8]: 0.028 µM; AC50 [2, 9]: 0.047 µM

Compound | PAMPA-BBB Pe [3] | AC50 [1, 4] [µM] | Papp (in vitro; [5]) [×10⁻⁶ cm/s] | AC50 [2, 6] [µM] | other results
COc1cc(C)ccc1O [Creosol] |  |  |  | 10.5 | PAMPA-BBB Pe (PAMPA): 115 10^-6 cm/sec; AC50 ([1]; Homo sapiens, Neuron, 48 h, read-out: TNL AC50 (48 hr)): 15.3 µM; Papp (in vitro): 115 ×10⁻⁶ cm/s
C[C@H]1COC2=C1C(=O)C(=O)c1c2ccc2c1CCCC2(C)C [Cryptotanshinone] |  | 21.1 | 12 | 19.8 | 
COC(=O)[C@H]1[C@H]2C[C@@H]3c4[nH]c5ccccc5c4CCN3C[C@H]2C[C@@H](OC(=O)c2cc(OC)c(OC)c(OC)c2)[C@@H]1OC [Deserpidine, reference compound] | 42 10^-6 cm/sec | 11.3 | 42.1 | 16.6 | 
Cc1c2ccncc2c(C)c2c1[nH]c1ccccc12 [Ellipticine] | >1000 10^-6 cm/sec |  |  | 19.6 | PAMPA-BBB Pe [7]: > 1000 10 × 10^− 6 cm/sec; PAMPA-BBB Pe [5]: >1000 10^-6 cm/sec; AC50 [1, 8]: 2.64 µM; AC50 [2, 9]: 19.6 µM
Cc1cc2c(C(C)C)c(O)c(O)c(C=O)c2c(O)c1-c1c(C)cc2c(C(C)C)c(O)c(O)c(C=O)c2c1O [Gossypol] | 393 10^-6 cm/sec | 7.6 | 393 | 6.91 | 
CN1[C@@H](CC(=O)c2ccccc2)CCC[C@H]1C[C@H](O)c1ccccc1 [Lobeline hydrochloride] |  | 9.96 | 31.8 | 22.5 | Papp (in vitro; [3]): 32 ×10⁻⁶ cm/s
CC1=C[C@H](O)CC(C)(C)[C@H]1/C=C/C(C)=C/C=C/C(C)=C/C=C/C=C(C)/C=C/C=C(C)/C=C/C1=C(C)C[C@@H](O)CC1(C)C [Lutein] |  | 24.2 | 28 | 21.1 | 
CCCC[C@@H](C)/C=C(C)/C=C(\C)C(=O)NC1=C[C@@](O)(/C=C/C=C/C=C/C(=O)NC2=C(O)CCC2=O)[C@@H]2O[C@@H]2C1=O [ManumycinA] |  | 6.43 | 64 | 8.33 | 
C=C(C)[C@@]12OC3(c4ccccc4)O[C@@H]1[C@@H]1[C@@H]4O[C@]4(CO)[C@@H](O)[C@]4(O)C(=O)C(C)=C[C@H]4[C@@]1(O3)[C@H](C)[C@H]2OC(=O)/C=C/C=C/c1ccccc1 [Mezerein] |  | 16.3 | 15.6 | 9.41 | Papp (in vitro; [3]): 16 ×10⁻⁶ cm/s
COc1cc2c(O)c3c(c(-c4ccc5c(c4)OCO5)c2cc1OC)C(=O)OC3 [NCGC00077816-01] |  | 11 | 187 | 6.51 | 
CCCCCC(=O)Cc1cc(O)cc(O)c1C(=O)Oc1cc(CC(=O)CCCCC)c(C(=O)O)c(OC)c1 [NCGC00095554-03] | >1000 10^-6 cm/sec | 6.66 |  |  | PAMPA-BBB Pe [5]: >1000 10^-6 cm/sec
C=CC(C1=CC(=O)C(OC)=CC1=O)c1ccc(OC)cc1 (stereo not shown) [NCGC00095719-04] |  | 1.26 | 143 | 1.33 | Papp (in vitro; [3]): 143 ×10⁻⁶ cm/s
C=C[C@@H](C1=CC(=O)C(OC)=C(OC)C1=O)c1ccccc1 [NCGC00160161-01] |  | 1.07 | 69.8 | 6.54 | Papp (in vitro; [3]): 70 ×10⁻⁶ cm/s
CC=C1CN2CC[C@]34C(=C(C=O)[C@@H]1C[C@H]23)Nc1c(O)cccc14 [NCGC00160220-01] | 18 10^-6 cm/sec | 0.157 | 18.2 |  | 
CC[C@@]1(O)C[C@H](O[C@H]2C[C@H](N(C)C)[C@H](O)[C@H](C)O2)c2c(cc3c(c2O)C(=O)c2c(O)ccc(O)c2C3=O)[C@H]1C(=O)OC [NCGC00178933-02] |  | 0.475 | 31.9 | 0.81 | Papp (in vitro; [3]): 32 ×10⁻⁶ cm/s
CC(=O)O[C@@H]1C[C@@]2(C)[C@H](c3ccoc3)C[C@H]3O[C@]32[C@]2(C)C(=O)C(O)=C3C(C)(C)C(=O)C=C[C@]3(C)C12 (stereo partly shown) [NCGC00179158-03] |  | 2.77 | 17.6 | 2.35 | Papp (in vitro; [3]): 18 ×10⁻⁶ cm/s
COc1ccc(CC(=O)c2ccc(O)cc2O)cc1 [ONONETIN] | 172 10^-6 cm/sec | 24.5 | 172 |  | 
Oc1ccc(C2=Cc3ccc(O)cc3OC2)cc1 [Phenoxodiol] |  | 8.86 | 145 | 4.33 | 
O=C1C=C2C=C[C@@H]3C[C@@]2(O1)[C@H]1CCCCN31 [Securinine] | 22 10^-6 cm/sec | 16.2 | 22 |  | 
Desoxycortone |  |  |  |  | PAMPA-BBB Pe [5]: 65.13 10^-6 cm/sec; AC50 ([1]; Table S1, total neurite length, 48 hr, head prints no unit, µM per Table 1 and Fig. 5, read-out: TNL AC50 (48 hr)): 33.5 µM

Reference: paper PMC11876671, “Investigating blood–brain barrier penetration and neurotoxicity of natural products for central nervous system drug development” (Scientific Reports, 2025)
